“And” between values parts separate entries of the source, which are not always exact repeats. Equal values may be shown once. Toxic doses and inconclusive results are not listed.

For this test, the system named is CD2F1 mice, L1210 leukemia ip, survival T/C. Put plainly: NCI In Vivo Anticancer Drug Screen. Data for tumor model L1210 Leukemia (intraperitoneal) in CD2F1 (CDF1) mice. The following applies: higher = longer survival. Put shortly:
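Ratio T/C, where T is the treated-group value and C the vehicle-dosed control value, from mice implanted with a transplantable tumor.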

Where [1] appears, read: endpoint: mean survival time, dose: 400.0 mg/kg/injection, schedule: Q04DX002 (ip), vehicle: Klucel (hydroxypropylcellulose) (HPC).
[2] abbreviates: endpoint: mean survival time, dose: 100.0 mg/kg/injection, schedule: Q01DX009 (ip), vehicle: saline with Tween-80.
Where [3] appears, read: endpoint: mean survival time, dose: 100.0 mg/kg/injection, schedule: Q04DX003 (ip), vehicle: saline with Tween-80.
[4] abbreviates: endpoint: mean survival time, dose: 200.0 mg/kg/injection, schedule: Q01DX009 (ip), vehicle: saline with Tween-80.
The mark [5] stands for this setting: endpoint: mean survival time, dose: 200.0 mg/kg/injection, schedule: Q04DX003 (ip), vehicle: saline with Tween-80.
Where [6] appears, read: endpoint: mean survival time, dose: 400.0 mg/kg/injection, schedule: Q01DX009 (ip), vehicle: saline with Tween-80.
[7] abbreviates: endpoint: mean survival time, dose: 400.0 mg/kg/injection, schedule: Q04DX003 (ip), vehicle: saline with Tween-80.
The mark [8] stands for this setting: endpoint: mean survival time, dose: 100.0 mg/kg/injection, schedule: Q01DX001 (ip), vehicle: saline with Tween-80.
The mark [9] stands for this setting: endpoint: mean survival time, dose: 200.0 mg/kg/injection, schedule: Q01DX001 (ip), vehicle: saline with Tween-80.
Setting [10] is: endpoint: mean survival time, dose: 25.0 mg/kg/injection, schedule: Q01DX009 (ip), vehicle: Klucel (hydroxypropylcellulose) (HPC).
Where [11] appears, read: endpoint: mean survival time, dose: 50.0 mg/kg/injection, schedule: Q01DX009 (ip), vehicle: Klucel (hydroxypropylcellulose) (HPC).
The mark [12] stands for this setting: endpoint: mean survival time, dose: 100.0 mg/kg/injection, schedule: Q01DX009 (ip), vehicle: Klucel (hydroxypropylcellulose) (HPC).
Where [13] appears, read: endpoint: mean survival time, dose: 100.0 mg/kg/injection, schedule: Q01DX001 (ip), vehicle: saline.
[14] abbreviates: endpoint: mean survival time, dose: 200.0 mg/kg/injection, schedule: Q01DX001 (ip), vehicle: saline.
Where [15] appears, read: endpoint: mean survival time, dose: 400.0 mg/kg/injection, schedule: Q01DX001 (ip), vehicle: saline.

In the case of `CCCCOS(=O)(=O)c1ccc(C)cc1`, the T/C (endpoint: mean survival time, dose: 100.0 mg/kg/injection, schedule: Q04DX002 (ip), vehicle: Klucel (hydroxypropylcellulose) (HPC)) was 93 % of control; the T/C (endpoint: mean survival time, dose: 200.0 mg/kg/injection, schedule: Q04DX002 (ip), vehicle: Klucel (hydroxypropylcellulose) (HPC)) is 101 % of control; the T/C under setting [1] is 90 % of control.
As to `COC(=O)c1cc(I)ccc1O`, the T/C under setting [2] was 107 % of control; the T/C under setting [3] was 103 % of control; the T/C under setting [4] is 109 % of control; the T/C under setting [5] was 100 % of control; the T/C under setting [6] is 103 % of control; the T/C under setting [7] was 100 % of control.
As to `CN(C)NC=O`, the T/C is, setting by setting: (endpoint: mean survival time, dose: 100.0 mg/kg/injection, schedule: Q04DX002 (ip), vehicle: saline) 101 % of control; (endpoint: mean survival time, dose: 200.0 mg/kg/injection, schedule: Q04DX002 (ip), vehicle: saline) 101 % of control; (endpoint: mean survival time, dose: 400.0 mg/kg/injection, schedule: Q04DX002 (ip), vehicle: saline) 101 % of control.
In the case of `COC(=O)CC/C=C\Cc1c(OC)c(C)c2c(c1OC=O)C(=O)OC2`, the T/C (endpoint: mean survival time, dose: 100.0 mg/kg/injection, schedule: Q04DX002 (ip), vehicle: saline with Tween-80) is 108 % of control; the T/C (endpoint: mean survival time, dose: 200.0 mg/kg/injection, schedule: Q04DX002 (ip), vehicle: saline with Tween-80) is 108 % of control; the T/C (endpoint: median survival time, dose: 100.0 mg/kg/injection, schedule: Q04DX002 (ip), vehicle: saline with Tween-80) is 112 % of control; the T/C (endpoint: median survival time, dose: 200.0 mg/kg/injection, schedule: Q04DX002 (ip), vehicle: saline with Tween-80) is 112 % of control.
On to `CC12CCC(=O)C=C1CCC1C2CCC2(C)C(C(=O)O)CCC12` (stereo not drawn), for which the T/C by setting is: under setting [3], 102 % of control; under setting [5], 96 % of control.
As to `Cc1ccc(S(=O)(=O)Nc2ccccc2)c(C(O)(c2ccccc2)c2ccccc2)c1`, the T/C was 95 % of control under setting [3], 106 % of control under setting [5] and 95 % of control under setting [7].
`COc1ccc(COc2ccc(Cl)cc2)cc1`: the T/C is, setting by setting: (endpoint: mean survival time, dose: 75.0 mg/kg/injection, schedule: Q04DX002 (ip), vehicle: saline with Tween-80) 87 % of control; (endpoint: mean survival time, dose: 150.0 mg/kg/injection, schedule: Q04DX002 (ip), vehicle: saline with Tween-80) 98 % of control; (endpoint: mean survival time, dose: 300.0 mg/kg/injection, schedule: Q04DX002 (ip), vehicle: saline with Tween-80) 106 % of control.
For the compound `CNC(=O)O/N=C1\CCCc2sccc21`, the T/C runs as follows: under setting [8], 110 % of control; under setting [9], 110 % of control; (endpoint: mean survival time, dose: 400.0 mg/kg/injection, schedule: Q01DX001 (ip), vehicle: saline with Tween-80) 101 % of control.
Take `CCOC(=O)C(CC)C(=O)OCC`: the T/C by setting is: under setting [2], 94 % of control; under setting [4], 93 % of control; under setting [6], 94 % of control.
As for `CCCCCCCCCCCCNC1=CC(=O)c2nccnc2C1=O`, the T/C reads like this: (endpoint: mean survival time, dose: 6.25 mg/kg/injection, schedule: Q01DX009 (ip), vehicle: saline with Tween-80) 98 % of control; (endpoint: mean survival time, dose: 12.5 mg/kg/injection, schedule: Q01DX009 (ip), vehicle: saline with Tween-80) 95 % of control; (endpoint: mean survival time, dose: 25.0 mg/kg/injection, schedule: Q01DX009 (ip), vehicle: saline with Tween-80) 91 % of control; (endpoint: mean survival time, dose: 50.0 mg/kg/injection, schedule: Q01DX009 (ip), vehicle: saline with Tween-80) 91 % of control; under setting [2], 95 % of control.
For `CC1(C)CC(C)(OC(=O)c2ccccc2)N=N1` (stereo not drawn), the T/C under setting [10] was 97 % of control; the T/C under setting [11] is 94 % of control; the T/C under setting [12] was 101 % of control; the T/C (endpoint: mean survival time, dose: 200.0 mg/kg/injection, schedule: Q01DX009 (ip), vehicle: Klucel (hydroxypropylcellulose) (HPC)) was 100 % of control; the T/C (endpoint: mean survival time, dose: 400.0 mg/kg/injection, schedule: Q01DX009 (ip), vehicle: Klucel (hydroxypropylcellulose) (HPC)) is 101 % of control.
With `O=C(NCC1CCCC1)c1ccccc1`, the T/C was 95 % of control under setting [13], 97 % of control under setting [14] and 89 % of control under setting [15].
As to `CCNC(=O)C(C)Br` (stereo not drawn), the T/C is 97 % of control under setting [13] and 106 % of control under setting [14].
On to `CCCCC#CCOCC(O)CCl` (stereo not drawn), for which the T/C runs as follows: (endpoint: mean survival time, dose: 25.0 mg/kg/injection, schedule: Q01DX009 (ip), vehicle: water) 95 % of control; (endpoint: mean survival time, dose: 50.0 mg/kg/injection, schedule: Q01DX009 (ip), vehicle: water) 107 % of control; (endpoint: mean survival time, dose: 100.0 mg/kg/injection, schedule: Q01DX009 (ip), vehicle: water) 103 % of control; (endpoint: mean survival time, dose: 200.0 mg/kg/injection, schedule: Q01DX009 (ip), vehicle: water) 100 % of control.
For the compound `[Cl][Pt][Cl].[NH-]NC(=O)c1ccncc1`, the T/C (endpoint: mean survival time, dose: 12.5 mg/kg/injection, schedule: Q04DX003 (ip), vehicle: saline with Tween-80) is 95 % of control; the T/C (endpoint: mean survival time, dose: 25.0 mg/kg/injection, schedule: Q04DX003 (ip), vehicle: saline with Tween-80) is 94 % of control; the T/C (endpoint: mean survival time, dose: 50.0 mg/kg/injection, schedule: Q04DX003 (ip), vehicle: saline with Tween-80) is 91 % of control; the T/C under setting [3] is 94 % of control; the T/C under setting [5] was 88 % of control.
In the case of `CC12CCCC(CCCO)(C1)NC(=O)C2` (stereo not drawn), the T/C was 101 % of control under setting [13], 101 % of control under setting [14] and 101 % of control under setting [15].
Take `C[n+]1cccc(NC(=O)c2ccc(NC(=O)C34CCC(C(=O)Nc5ccc(C(=O)Nc6ccc[n+](C)c6)cc5)(CC3)CC4)cc2)c1`: the T/C reads like this: (endpoint: mean survival time, dose: 2.5 mg/kg/injection, schedule: Q01DX009 (ip), vehicle: saline with Tween-80) 113 % of control; (endpoint: mean survival time, dose: 5.0 mg/kg/injection, schedule: Q01DX009 (ip), vehicle: saline with Tween-80) 123 % of control and 104 % of control; (endpoint: mean survival time, dose: 10.0 mg/kg/injection, schedule: Q01DX009 (ip), vehicle: saline with Tween-80) 110 % of control; (endpoint: mean survival time, dose: 20.0 mg/kg/injection, schedule: Q01DX009 (ip), vehicle: saline with Tween-80) 160 % of control; (endpoint: mean survival time, dose: 80.0 mg/kg/injection, schedule: Q01DX009 (ip), vehicle: saline with Tween-80) 108 % of control; (endpoint: median survival time, dose: 3.6 mg/kg/injection, schedule: Q01DX009 (ip), vehicle: saline with Tween-80) 106 % of control. In addition, the T/C (endpoint: median survival time, dose: 16.67 mg/kg/injection, schedule: Q01DX009 (ip), vehicle: saline with Tween-80) was 264 % of control.
Take `CC(=O)NC1C(OC(C)=O)OC(COC(C)=O)C(OC(C)=O)C1OC(C)=O` (stereo not drawn): the T/C (endpoint: mean survival time, dose: 50.0 mg/kg/injection, schedule: Q01DX001 (ip), vehicle: saline with Tween-80) was 101 % of control; the T/C under setting [8] is 95 % of control; the T/C under setting [9] was 98 % of control.
For `CCO/N=C(\C)CSC1=NCCN1`, the T/C (endpoint: mean survival time, dose: 75.0 mg/kg/injection, schedule: Q04DX003 (ip), vehicle: saline) is 102 % of control and the T/C (endpoint: mean survival time, dose: 150.0 mg/kg/injection, schedule: Q04DX003 (ip), vehicle: saline) is 100 % of control.
As for `CCCCCCCCCCCCCCCCCC[n+]1cccc(C(=O)N2CCOCC2)c1`, the T/C by setting is: under setting [10], 90 % of control; under setting [11], 95 % of control; under setting [12], 92 % of control.
`CCOC(=O)C(Cc1ccc(Cl)cc1)P(=O)(OCC)OCC` (stereo not drawn): the T/C by setting is: under setting [13], 106 % of control; under setting [14], 101 % of control; under setting [15], 106 % of control.
Regarding `O=C(CSCC(=O)c1ccccc1)c1ccccc1`, under setting [1], the T/C was 89 % of control.
On to `O=NN1CC2CCC1CC2`, for which the T/C is 98 % of control (endpoint: mean survival time, dose: 5.0 mg/kg/injection, schedule: Q01DX001 (ip), vehicle: saline with Tween-80) and 101 % of control (endpoint: mean survival time, dose: 10.0 mg/kg/injection, schedule: Q01DX001 (ip), vehicle: saline with Tween-80).
Consider `CC1Cc2ccccc2C1=O` (stereo not drawn), for which the T/C is 90 % of control under setting [2], 91 % of control under setting [4] and 94 % of control under setting [6].
For `Cn1ccc(CON)n1`, the T/C runs as follows: (endpoint: mean survival time, dose: 100.0 mg/kg/injection, schedule: Q01DX009 (ip), vehicle: saline) 94 % of control; (endpoint: mean survival time, dose: 200.0 mg/kg/injection, schedule: Q01DX009 (ip), vehicle: saline) 93 % of control.

The values are drawn from PubChem BioAssay AID256 (DTP/NCI, 2004).
